Test results taken from US10201556B2, “Combination for use in treating diseases or conditions associated with melanoma, or treating diseases or conditions associated with activated B-raf pathway” (InteRNA Technologies B.V., priority 2012, dated 2019).
Entries after “also recorded” stand apart in the source; their conditions may differ.

What was measured:
[1] = system: A375Hu melanoma cell line; experiment: Anti-proliferative effect of miRNA mimics, MTS assay; format: cell-based, human; conditions: 10 nM mimic, 72 hours after transfection
Method: (§1) The anti-proliferative effect of miRNA's in melanoma cell lines was determined with mature miRNA mimics from Ambion. For each cell line optimal growth and transfection conditions were determined prior to the experiment. Cells were plated in a 96-well plate at 3000 cells per well (100 uL) and were grown at 37 C, 5% CO2. Transfection mix (20 uL per well) was made for each miRNA mimic concentration with 0.3 uL (M249, M249-R4) or 0.5 uL (A375Hu, A375Hu-R1, A2058, RPMI-7951) X-TremeGene (Roche) per well (according to manufacturer's instructions) in Optimem (Invitrogen). Cells were transfected 24 hours after plating in triplicate. Medium was replaced 48 hours after transfection with fresh medium.

[2] = system: A375Hu-R1 melanoma cell line; experiment: as above; format: cell-based, human; conditions: 10 nM mimic, 72 hours after transfection
Method: as §1

M249 melanoma cell line = experiment: as above; format: cell-based; conditions: 5 nM mimic, 72 hours after transfection
Method: as §1

[3] = system: RPMI-7951 melanoma cell line; experiment: as above; format: cell-based; conditions: 10 nM mimic, 72 hours after transfection
Method: as §1

A2058 melanoma cell line = experiment: as above; format: cell-based; conditions: 10 nM mimic, 72 hours after transfection
Method: as §1

[4] = system: M249-AR (M249-R4) melanoma cell line; experiment: as above; format: cell-based; conditions: 30 nM mimic, 72 hours after transfection
Method: as §1

phospho-ERK1/2 = experiment: Western immunoblotting of phospho-ERK1/2 protein levels; format: cell-based, human; conditions: A375Hu cells, 72 hrs, Western blot
Method: (§2) A375Hu cells were seeded in 6-well plates and transfected with different concentrations (10, 50 and 100 nM) of synthetic hsa-miR-129-5p or BRAF siRNA (100 nM) using RNAiMAX (7.5 μl/well). As control a scrambled miRNA and a non-targeting siRNA pool were included. Proteins were harvested 72 hrs post transfection using RIPA buffer supplemented with HALT™ Phosphatase Inhibitor (Thermo Scientific) and Protease Inhibitor Cocktail (Sigma). Fifteen μg protein was loaded on 7.5% TGX acrylamide gels (Bio-Rad) and subsequently transferred to PVDF membranes. The membranes were blocked in 5% milk in TBS-T and incubated O/N at 4° C. with primary antibodies to bRAF, phosphoERK1/2, CDK6, and tubulin (Santa Cruz). After incubation with secondary goat-anti-mouse antibodies (Santa Cruz), membranes were developed using ECL (Pierce).
as §2, with “(1, 10” for “(10, 50”, “hsa-miR-3157” for “hsa-miR-129-5p”, “bRAF, total ERK1/2,” for “bRAF,”, “CDK4, BCL2” for “CDK6,”
as §2, with “concentrations” for “concentrations (10, 50 and 100 nM)”, “vemurafenib (PLX-4032, 0.01, 0.1, 1 uM).” for “synthetic hsa-miR-129-5p or BRAF siRNA (100 nM) using RNAiMAX (7.5 μl/well). As control a scrambled miRNA and a non-targeting siRNA pool were included.”, “bRAF, total ERK1/2,” for “bRAF,”, “CDK4, BCL2” for “CDK6,”
A2058 cells were seeded in 6-well plates and transfected with different concentrations (1, 10 and 100 nM) of synthetic hsa-miR-3157-5p or BRAF siRNA using X-TremeGene (Roche, 15 μl/well). As control a scrambled miRNA was included. Proteins were harvested 72 hrs post transfection using RIPA buffer supplemented with HALT™ Phosphatase Inhibitor (Thermo Scientific) and Protease Inhibitor Cocktail (Sigma). Fifteen μg protein was loaded on 10% TGX acrylamide gels (Bio-Rad) and subsequently transferred to PVDF membranes. The membranes were blocked in 5% milk in TBS-T and incubated O/N at 4° C. with primary antibodies to bRAF, total ERK1/2, phosphoERK1/2, BCL2, CDK4 and tubulin (Santa Cruz). After incubation with secondary goat-anti-mouse antibodies (Santa Cruz), membranes were developed using ECL (Pierce).
Transfection was performed as described in Example 4 in 6-well format. Proteins were isolated using RIPA buffer (50 mM Tris pH 8.0, 150 mM NaCL, 1% NP-40, 0.5% Sodium deoxycholate, 0.1% SDS), supplemented with Protease Inhibitor Cocktail (Sigma) and Halt™ Phosphatase Inhibitor Cocktail (Pierce/Thermo Scientific). […]

CDK6 = experiment: Western immunoblotting of CDK6 protein levels; format: cell-based, human; conditions: A375Hu cells, 72 hrs post transfection, Western blot
Method: as §2

Substance | A375Hu % Viability 10 nM [1] [%] | A375Hu-R1 % Viability 10 nM [2] [%] | M249 % Viability 5 nM (M249 melanoma cell line) [%] | RPMI-7951 % Viability 10 nM [3] [%] | A2058 % Viability 10 nM (A2058 melanoma cell line) [%] | M249-AR % Viability 30 nM [4] [%] | phospho-ERK1/2 protein levels (phospho-ERK1/2) | CDK6 protein levels (CDK6)
hsa-miR-7-5p: mature miRNA mimic, SEQ ID NO 1 UGGAAGACUAGUGAUUUUGUUGU (listed as RNA, chemistry not given here) | 58 | 68 | 48 | 65 | 51 | 67 | – | –
hsa-miR-10b-3p: mature miRNA mimic, SEQ ID NO 2 ACAGAUUCGAUUCUAGGGGAAU (listed as RNA, chemistry not given here) | 71 | 59 | 82 | 51 | 42 | 86 | – | –
hsa-miR-16-5p: mature miRNA mimic, SEQ ID NO 7 UAGCAGCACGUAAAUAUUGGCG (listed as RNA, chemistry not given here) | 62 | 57 | 27 | 68 | 39 | 68 | – | –
hsa-miR-96-5p: mature miRNA mimic, SEQ ID NO 3 UUUGGCACUAGCACAUUUUUGCU (listed as RNA, chemistry not given here) | 73 | 69 | 64 | 53 | 33 | 82 | – | –
hsa-miR-129-5p: mature miRNA mimic, SEQ ID NO 4 CUUUUUGCGGUCUGGGCUUGC (listed as RNA, chemistry not given here) | 59 | 48 | 47 | 82 | 44 | 64 | does not result in pERK down-regulation | significant reduction in CDK6 protein abundance; also recorded: down-regulates
hsa-miR-182-3p: mature miRNA mimic, SEQ ID NO 10 UGGUUCUAGACUUGCCAACUA (listed as RNA, chemistry not given here) | – | 59 | 71 | 68 | 77 | 83 | – | –
hsa-miR-200c-5p: mature miRNA mimic, SEQ ID NO 9 CGUCUUACCCAGCAGUGUUUGG (listed as RNA, chemistry not given here) | 43 | 66 | 44 | 58 | 37 | 58 | – | –
hsa-miR-497-5p: mature miRNA mimic, SEQ ID NO 8 CAGCAGCACACUGUGGUUUGU (listed as RNA, chemistry not given here) | 45 | 57 | 29 | 68 | 53 | 68 | – | –
hsa-miR-518b: mature miRNA mimic, SEQ ID NO 5 CAAAGCGCUCCCCUUUAGAGGU (listed as RNA, chemistry not given here) | 66 | – | 50 | 53 | 44 | 53 | – | –
